pIC50: −log10 of the molar value.
Target: AChE (acetylcholinesterase) (Electrophorus electricus, UniProt O42275)
Assay: Ellman spectrophotometric assay
Format: biochemical

Sequence of AChE (acetylcholinesterase) (O42275 24-633): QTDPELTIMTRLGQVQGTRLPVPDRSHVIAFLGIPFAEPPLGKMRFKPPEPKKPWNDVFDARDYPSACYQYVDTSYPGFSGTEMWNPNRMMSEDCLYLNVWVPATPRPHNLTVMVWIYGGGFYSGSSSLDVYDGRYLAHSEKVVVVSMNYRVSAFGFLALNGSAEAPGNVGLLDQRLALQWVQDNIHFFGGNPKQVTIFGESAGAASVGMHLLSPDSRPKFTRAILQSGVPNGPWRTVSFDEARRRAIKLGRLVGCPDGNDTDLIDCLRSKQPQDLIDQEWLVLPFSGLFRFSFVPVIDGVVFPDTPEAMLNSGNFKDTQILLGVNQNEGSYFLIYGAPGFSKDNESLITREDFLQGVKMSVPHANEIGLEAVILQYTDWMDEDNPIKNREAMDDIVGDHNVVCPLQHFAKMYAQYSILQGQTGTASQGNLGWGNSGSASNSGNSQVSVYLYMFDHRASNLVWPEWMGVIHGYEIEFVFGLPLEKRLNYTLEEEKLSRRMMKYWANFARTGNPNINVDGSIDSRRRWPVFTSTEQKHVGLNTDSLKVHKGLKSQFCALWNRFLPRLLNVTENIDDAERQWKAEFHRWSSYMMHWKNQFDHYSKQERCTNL

Compound | pIC50 | IC50 [µg/mL]
COc1ccc2cc3[n+](cc2c1OC)CCc1cc2c(cc1-3)OCO2 [Berberine, reference compound] | 6.57 | 
acetylaposerratinine [compound 2] |  | 15.2
CC(=O)OC1C(C)CC(=O)N2CCCC3=C(CCC2)C1CC3=O (stereo not drawn) [compound 1, lycosquarosine A] | 3.77 | 

Reference: publication PMC6271335, “Anti-Cholinesterase Activity of Lycopodium Alkaloids from Vietnamese Huperzia squarrosa (Forst.) Trevis” (Molecules, 2014)
